Reference: PMC9317670, “Temporal and Wash-Out Studies Identify Medicines for Malaria Venture Pathogen Box Compounds with Fast-Acting Activity against Both Trypanosoma cruzi and Trypanosoma brucei” (Microorganisms, 2022)
Where two headings read alike, the source gives them in different places.

Tests used:
T. cruzi and T.b. brucei = assay: Speed of action and cidality classification from temporal and wash off assays; format: cell-based, Trypanosoma cruzi, Trypanosoma brucei brucei; conditions: for Speed of Action (FA/SA): TC = T. cruzi, TBB = T.b. brucei; for Speed of Action (Table 5): prioritised compounds, Fast/Slow
T. cruzi [1] = assay: T. cruzi compound wash off assay (48 h with compound, wash off, 72 h without); format: cell-based, Trypanosoma cruzi; conditions: for Fold Change of IC50, wash off vs 48 h: IC50 from 48 h incubation to IC50 following wash off and further 72 h; for IC50: read-out: IC50 Wash Off
[2] = system: T. cruzi Tulahuen strain parasites in 3T3 host cells; assay: T. cruzi 48 h image-based assay; format: cell-based, Trypanosoma cruzi
T. cruzi [3] = assay: T. cruzi temporal image-based assay, 24 h exposure; format: cell-based, Trypanosoma cruzi; conditions: for IC50: read-out: IC50 24 h T. cruzi
HEPG2 cells = assay: HEPG2 cytotoxicity assay; format: cell-based, human
HEK293 cells = assay: HEK293 cytotoxicity assay; format: cell-based, human; conditions: HEK293, 72 h, NA = not active, highest dose 79 µM unless given
[4] = system: T.b. brucei bloodstream 427 strain parasites; assay: T.b. brucei 72 h REDOX-based (resazurin) viability assay; format: cell-based, Trypanosoma brucei brucei; conditions: for Emax % (T.b. brucei) / IC50 / Emax: 72 h
T.b. brucei [5] = assay: T.b. brucei temporal viability (time-kill) assay, 24 h, PrestoBlue; format: cell-based, Trypanosoma brucei brucei; conditions: for IC50: read-out: IC50 24 h T.b. brucei
Experimental: Time-kill assays was undertaken as previously described, using the REDOX reagent PrestoBlue® [24]. […] Control compounds were added at the same concentrations at outlined for the resazurin-based assays.

T.b. brucei [6] = assay: T.b. brucei temporal viability (time-kill) assay, 48 h, PrestoBlue; format: cell-based, Trypanosoma brucei brucei; conditions: for IC50: read-out: IC50 48 h T.b. brucei
T.b. gambiense STIB930 = T.b. gambiense STIB930 assay, 72 h; format: cell-based; conditions: Trypanosoma brucei, unit inferred, read-out: IC50 T. Bg STIB930 (T.b. gambiense)
T.b. rhodesiense STIB900 = T.b. rhodesiense STIB900 assay, 72 h; format: cell-based; conditions: Trypanosoma brucei; STIB900, 72 h; unit inferred; read-out: IC50 T. bR (T.b. rhodesiense)
[7] = target: T. cruzi recombinant CYP51 (TcCYP51) (Trypanosoma cruzi, UniProt Q7Z1V1); assay: biochemical; conditions: criterion: IC50 within a log difference to posaconazole
Sequence of T. cruzi recombinant CYP51 (TcCYP51) (Q7Z1V1 whole entry): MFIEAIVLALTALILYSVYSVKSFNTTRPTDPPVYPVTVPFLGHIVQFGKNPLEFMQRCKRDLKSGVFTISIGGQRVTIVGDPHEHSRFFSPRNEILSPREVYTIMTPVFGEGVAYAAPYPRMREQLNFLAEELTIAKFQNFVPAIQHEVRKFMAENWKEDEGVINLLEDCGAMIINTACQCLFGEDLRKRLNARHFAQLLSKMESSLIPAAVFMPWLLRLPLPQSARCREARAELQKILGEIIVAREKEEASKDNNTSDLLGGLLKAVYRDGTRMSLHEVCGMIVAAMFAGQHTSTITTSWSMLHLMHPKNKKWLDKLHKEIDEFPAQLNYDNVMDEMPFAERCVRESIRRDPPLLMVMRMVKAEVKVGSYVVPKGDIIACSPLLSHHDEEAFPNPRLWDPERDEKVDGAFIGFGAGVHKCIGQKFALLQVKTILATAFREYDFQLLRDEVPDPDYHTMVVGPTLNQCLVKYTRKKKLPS

[8] = dosed orally in mice; ref [51]; cited from earlier work
[9] = Trypanosoma cruzi, T. cruzi, 48 h incubation, wash off, further 72 h
[10] = Trypanosoma cruzi, TULAHUEN, 48 h; read-out: Emax % (T. cruzi) (converted)
[11] = Trypanosoma cruzi, TULAHUEN, 48 h; read-out: IC50 (T. cruzi)
[12] = selectivity index in relation to 3T3 host cells; highest dose 3T3 73 µM
[13] = Trypanosoma cruzi, NA = not active at given concentration
[14] = 48 h; read-out: IC50 (T. cruzi)
[15] = selectivity index in relation to HEK293 cells
[16] = selectivity index in relation to HEPG2 cells
[17] = HEPG2, 72 h, NA = not active, highest dose 79 µM unless given, read-out: IC50 (HEP) (converted)
[18] = T. cruzi, 48 h incubation, wash off, further 72 h
[19] = Trypanosoma brucei, read-out: Emax 24 h T.b. brucei (converted)
[20] = Trypanosoma brucei, read-out: Emax 48 h T.b. brucei (converted)

| Compound | Fold Change of IC50, wash off vs 48 h (T. cruzi [1]; T. cruzi) [fold] | IC50 (T. cruzi [1]; [9]) [nM] | IC50 (T. cruzi [3]; [13]) [µM] | Speed of Action (FA/SA) (T. cruzi and T.b. brucei) | Emax [2, 10] [%] | IC50 [2, 11] [nM] | SI (T. cruzi) 3T3 [2, 12] | SI (T. cruzi) HEK [2, 15] | SI (T. cruzi) (HEP) [2, 16] | SI (T.b. brucei) HEK [4, 15] | SI (T.b. brucei) (HEP) [4, 16] | Speed of Action (Table 5) (T. cruzi and T.b. brucei) | IC50 (T.b. brucei [5]; Trypanosoma brucei) [nM] | IC50 (T.b. brucei [6]; Trypanosoma brucei) [nM] | IC50 (T.b. gambiense STIB930) [nM] | Emax ([4]; Trypanosoma brucei) [%] | IC50 ([4]; Trypanosoma brucei) [nM] | IC50 (T.b. rhodesiense STIB900) [nM] | Emax (T.b. brucei [5]; [19]) [%] | Emax (T.b. brucei [6]; [20]) [%] | further results |
| --- | --- | --- | --- | --- | --- | --- | --- | --- | --- | --- | --- | --- | --- | --- | --- | --- | --- | --- | --- | --- | --- |
| O=C(Cn1ccnc1[N+](=O)[O-])NCc1ccccc1 [Benznidazole, reference compound] | 0.29 | 1200 ± 110 | 4.7 ± 1.4 | FA (Fast-acting (FA) = IC50 value can be determined following 24 h incubation, <10-fold difference in the IC50 value from 24 to 72 h) | 100 | 3400 ± 710 | >37 | – | – | – | – | – | – | – | – | – | – | – | – | – | IC50 (HEP) (HEPG2 cells; HEPG2, 72 h, NA = not active, highest dose 79 µM unless given): NT (NA at 127 µM) |
| CN(C)c1cc(NC(=O)Nc2ccccc2)c2ccccc2n1 [MMV 006901] | – | – | – | – | – | – | >60 ^4 | 15 | 7.1 | 3.7 | 1.8 | – | – | – | – | – | – | – | – | – | IC50 (HEK293 cells): 18 ± 0.81 µM; Emax % (T. cruzi) ([2]; 48 h): 100%; IC50 [2, 14]: 1200 ± 110 nM; Emax % (T.b. brucei) [4]: 99%; IC50 [4]: 4900 ± 8.5 nM; IC50 (HEPG2 cells; [17]): 9.8 µM |
| Nc1nc2ccc(-c3cncc(Oc4ccc(F)cc4)c3)cc2[nH]1 [MMV 687248] | 1.3 | – | – | FA (Fast-acting (FA) = IC50 value can be determined following 24 h incubation, <10-fold difference in the IC50 value from 24 to 72 h) | – | – | >49 | 53 | 13 | – | – | Fast | 930 ± 47 | 200 ± 32 | 240 ± 22 | 99 | 510 ± 45 | 1200 ± 540 | – | – | Emax (T.b. brucei [5]; Trypanosoma brucei, read-out: Emax 24 h T.b. brucei): 87%; Emax (T.b. brucei [6]; Trypanosoma brucei, read-out: Emax 48 h T.b. brucei): 99%; IC50 (T. cruzi [1]; Trypanosoma cruzi): 2000 ± 39 nM; Emax ([2]; Trypanosoma cruzi, TULAHUEN, 48 h, read-out: Emax % (T. cruzi)): 99%; IC50 ([2]; Trypanosoma cruzi, TULAHUEN, 48 h, read-out: IC50 (T. cruzi)): 1500 ± 130 nM; SI (T.b. brucei) (HEP) [4]: 38; SI (T.b. brucei) HEK [4]: > 155; IC50 (T. cruzi [3]; Trypanosoma cruzi): 4.1 ± 1.3 µM; IC50 (HEPG2 cells; Homo sapiens, HepG2, 72 h, read-out: IC50 (HEP)): 19.6 µM |
| N=C(N)c1ccc(OCCCCCOc2ccc(C(=N)N)cc2)cc1 [Pentamidine, reference compound] | – | – | – | FA (Fast-acting (FA) = IC50 value can be determined following 24 h incubation, <10-fold difference in the IC50 value from 24 to 72 h) | – | – | – | – | – | >216 | – | – | 12 ± 2.1 | 0.2 ± 0.0021 | 3 ± 2 | 100 | 3.1 ± 0.1 | – | 99 | 100 | IC50 HEK (HEK293 cells): NA at 0.67 µM (NT) |

More lines, main results first:

| Fold Change of IC50, wash off vs 48 h (T. cruzi [1]; T. cruzi) [fold] | IC50 (T. cruzi [1]; [9]) [nM] | IC50 (T. cruzi [3]; [13]) [µM] | Compound | Speed of Action (FA/SA) (T. cruzi and T.b. brucei) | Emax [2, 10] [%] | IC50 [2, 11] [nM] | SI (T. cruzi) 3T3 [2, 12] | SI (T. cruzi) HEK [2, 15] | SI (T. cruzi) (HEP) [2, 16] | SI (T.b. brucei) HEK [4, 15] | SI (T.b. brucei) (HEP) [4, 16] | Speed of Action (Table 5) (T. cruzi and T.b. brucei) | IC50 (T.b. brucei [5]; Trypanosoma brucei) [nM] | IC50 (T.b. brucei [6]; Trypanosoma brucei) [nM] | IC50 (T.b. gambiense STIB930) [nM] | Emax ([4]; Trypanosoma brucei) [%] | IC50 ([4]; Trypanosoma brucei) [nM] | IC50 (T.b. rhodesiense STIB900) [nM] | Emax (T.b. brucei [5]; [19]) [%] | Emax (T.b. brucei [6]; [20]) [%] | further results |
| --- | --- | --- | --- | --- | --- | --- | --- | --- | --- | --- | --- | --- | --- | --- | --- | --- | --- | --- | --- | --- | --- |
| 0.91 | – | – | CCCCN(CCCC)c1c(C#N)cc(S(=O)(=O)Nc2ccccc2)cc1C#N [MMV 688467] | SA (TC) | – | – | >32 | > 34 | 10 | > 254 | 74 | – | – | – | – | – | – | – | – | – | Emax 24 h T.b. brucei (T.b. brucei [5]): 88%; IC50 (T.b. brucei [5]): 1200 ± 350 nM; Emax 48 h T.b. brucei (T.b. brucei [6]): 100%; IC50 (T.b. brucei [6]): 460 ± 18 nM; Emax Wash Off (T. cruzi [1]; [18]): 100%; IC50 (T. cruzi [1]; [18]): 2100 ± 440 nM; Emax % (T. cruzi) ([2]; 48 h): 98%; Emax % (T. cruzi) ([2]; 48 h; listed as MMV688467): > 95%; IC50 [2, 14]: 2300 ± 460 nM; Emax % (T.b. brucei) [4]: 99%; IC50 [4]: 310 ± 6.9 nM; Emax 24 h T. cruzi (T. cruzi [3]): 75%; IC50 (T. cruzi [3]; NA = not active at given concentration): 4.4 ± 0.73 µM; IC50 (HEPG2 cells; [17]): 23 µM |
| 0.58 | 310 ± 67 | 0.9 ± 0.17 | CCc1ccccc1-n1c(C)cn2c3c(=O)n(C(C(=O)OC)C(C)C)c(=O)n(C)c3nc12 (stereo not drawn) [MMV 688550] | FA (Fast-acting (FA) = IC50 value can be determined following 24 h incubation, <10-fold difference in the IC50 value from 24 to 72 h) | 100 | 530 ± 110 | >138 | >149 (>149) | >149 (>149) | >3160 (>3160) | >3160 (>3160) | Fast | 22 ± 14 | 21 ± 0.53 | < 1 | 99 | 25 ± 0.83 | 80 ± 1.4 | 100 | 99 | Emax (T. cruzi [3]; Trypanosoma cruzi): 80%; Inhibition of TcCYP51 (in words) [7]: did not display activity |
| 0.74 | 380 ± 56 | 1.3 ± 0.12 | O=C(NCCc1ccn(-c2ccccc2)n1)C1CCCCC1 [MMV 688795] | FA (Fast-acting (FA) = IC50 value can be determined following 24 h incubation, <10-fold difference in the IC50 value from 24 to 72 h) | 100 | 580 ± 50.3 | >126 | >136 (>136) | >136 (>136) | >608 (>608) | >608 (>608) | Fast | 290 ± 4.7 | 106 ± 20 | 630 ± 1.4 | 99 | 130 ± 52 | 79 ± 0.7 | 99 | 99 | Emax (T. cruzi [3]; Trypanosoma cruzi): 89% |
| 1.1 | 1100 ± 480 | 2.4 ± 1.3 | O=C(NCc1nnc2n1CCCCC2)c1ccc(-c2ccc(F)cc2)o1 [MMV 688796] | FA (Fast-acting (FA) = IC50 value can be determined following 24 h incubation, <10-fold difference in the IC50 value from 24 to 72 h) | 100 | 1200 ± 400 | >61 | >66 (>66) | >66 (>66) | >658 (>658) | >658 (>658) | Fast | 240 ± 53 | 97 ± 4.8 | 160 ± 11 | 99 | 120 ± 23 | 46 ± 31 | 82 | 100 | Half-life [8]: 3.9 h; Emax (T. cruzi [1]; [9]): 98%; Emax (T. cruzi [3]; Trypanosoma cruzi): 91% |
| 0.50 | 2800 ± 130 | 3.5 ± 0.44 | COc1ccc(C[C@H](N)C(=O)N[C@H]2[C@@H](O)[C@H](n3cnc4c(N(C)C)ncnc43)O[C@@H]2CO)cc1 [Puromycin, reference compound] | FA (Fast-acting (FA) = IC50 value can be determined following 24 h incubation, <10-fold difference in the IC50 value from 24 to 72 h) | 100 | 5600 ± 11 | 1.2 | 0.13 | 0.044 | 12 | 4.0 | – | 96 ± 13 | 97 ± 0.42 | – | 100 | 63 ± 0.41 | – | 100 | 100 | IC50 (HEK293 cells; Homo sapiens): 0.73 ± 0.27 µM; IC50 (HEPG2 cells; Homo sapiens, HEPG2, 72 h, NA = not active, highest dose 79 µM unless given, read-out: IC50 (HEP) (converted)): 0.25 µM |
